We go through five compounds from patent US7332615B2, “Hydrophilic analogs of 4,8-dihydrobenzodithiophene-4,8-diones as anticancer agents” (Industrial Technology Research Institute, priority 2004, dated 2008).

Data set [1] deals with p-gp-expressing epidermoid carcinoma of the nasopharynx (KB-VIN). Description: Cytotoxicity Assays Method C, KB-VIN. As to conditions: for IC50: 50% reduction in cell number after 72 hr of incubation; for activity against the MDR cell line KB-VIN (in words): summary of Table 3. The class given is cell-based. From the text:
Cytotoxicity Assays Method C (KB, KB-VIN, AS49, HCT-8, PC-3) [K. H. Lee et. al. Planta Med. 54, 308-312 (1998), Monk A et. al. J. Natl. Cancer Inst. 83, 757-766 (1991).] The cell lines included epidermoid caninoma of the nasopharynx (KB), p-gp-expressing epidermoid caninoma of the nasopharynx (KB-VIN), lung carcinoma (A-549), ileocecal carinoma (HCT-8) and prostate cancer (PC-3) cell lines.

The test system of another data set is prostate cancer (PC-3). Description: Cytotoxicity Assays Method C, PC-3. Conditions: for IC50: read-out: IC50 PC-3; for activity against the androgen-insensitive prostate cancer cell line PC-3 (in words): PC-3, summary of Table 3. Type of data set: cell-based.
Data set [2] relates to epidermoid carcinoma of the nasopharynx (KB). Description: Cytotoxicity Assays Method C, KB. The class given is cell-based. Conditions: read-out: IC50 KB.
For data set [3], the system named is ileocecal carcinoma (HCT-8). Description: Cytotoxicity Assays Method C, HCT-8. The class given is cell-based. Conditions: Homo sapiens, HCT-8, 72 h, read-out: IC50 HCT-8.
Data set [4] concerns Human promyeloid leukemia HL-60 cells. Description: Cytotoxicity Assays Method B (MTT proliferation assay), HL-60. Type of data set: cell-based. Conditions: for IC50: Homo sapiens, read-out: IC50 (concentration at which 50% of the cells are inhibited from growing). The procedure: Cytotoxicity Assays Method B (HL-60) [H. M. Chen et al. Chin. Pharm. J. 53, 157-167 (2001)]
Human promyeloid leukemia HL-60 cells were obtained from the American Type
Culture Collection (Manassas, Va., USA) and the Culture Collection and Research Center(CCRC) (Tai wan, ROC). Human promyeloid leukemia HL-60 cells were cultured in suspension in RPMI-1640 medium (GIBCO, Grand Is land, USA), containing 10% fetal bovine se rum (GIBCO, Grand Is land, USA), 100 unit/mL penicillin, […] streptomycin and 1% L-glutamine at 37° C. in a humidified atmosphere of 5% CO2 in air. Cells were split every day to maintain the cell numbers between 2−5×10^5/mL. Cell numbers were assessed by the standard procedure of leukocyte counting using a hemocytometer and cell viability was checked by the ability of cells to exclude Trypan blue.
Cellular proliferation was determined by the MTT [3-(4,5-dimethylthiazol-2-yl)-2,5-diphenyltetrazolium bromide] as say. Briefly, […] of MTT (5 mg/mL) was added to each well of 96-well plates containing 1×10^5 cells after treatment with different concentrations of samples for 4 days. The reaction was stopped after 2 h by adding […] of 0.04 N HCl in isopropanol and the OD570 nm was determined by a minicolorimetric reader. Each concentration treatment was performed in triplicate.

The subject of a further data set is lung carcinoma (A-549). Description: Cytotoxicity Assays Method C, A-549. The class given is cell-based. As to conditions: read-out: IC50 A549.
The nature of another data set: Water solubility. Conditions: water; in H2O. The class given is physicochemical.
The mark [5] stands for this setting: HCT-8, 50% reduction in cell number after 72 hr of incubation.
Where [6] appears, read: 96 h, HL-60, MTT, treatment for 4 days.

The term solubility denotes the concentration that dissolves in the medium under given conditions. A higher solubility goes with much dissolved substance.

Where a name gives a salt, the structure may show the parent alone. Read-outs that look alike come from different tables or passages of the source.

Consider `CC(OC(=O)CCCC(=O)O)c1cc2c(s1)C(=O)c1sccc1C2=O` (stereo not shown) [IIb-2, Mono-[1-(4,8-dioxo-4,8-dihydrobenzo[1,2-b:5,4-b′]dithiophen-2-yl)-ethyl]pentanedioate], for which the IC50 in data set [1] stood at 50 nM; in the data set on prostate cancer (PC-3) (72 h) it was 60 nM; in data set [2] (72 h), 30 nM; in data set [3] it was 190 nM; in data set [4] (HL-60, 96 h), 250 nM; in the data set on lung carcinoma (A-549) (Homo sapiens, A549, 72 h), 110 nM. The “activity against the MDR cell line KB-VIN (in words)” value in data set [1] is on record as “potent activity”. For the same compound, the “activity against the androgen-insensitive prostate cancer cell line PC-3 (in words)” value in the data set on prostate cancer (PC-3) was “potent activity”.

With `CC(OCC(=O)O)c1cc2c(s1)C(=O)c1ccsc1C2=O` (stereo not shown) [IX, 1-(4,8-Dioxo-4,8-dihydroxybenzo[1,2-b:4,5-b′]-dithiophen-2-yl-ethoxy)-acetic acid], the IC50 in data set [1] came out at 18200 nM; in the data set on prostate cancer (PC-3) (PC-3, 50% reduction in cell number after 72 hr of incubation), 2510 nM; in data set [2] (KB, 50% reduction in cell number after 72 hr of incubation), 19800 nM; in data set [3] (setting [5]) it was 240 nM; in data set [4] (setting [6]) it was 2580 nM; with lung carcinoma (A-549) (A549, 50% reduction in cell number after 72 hr of incubation), 2600 nM.

Take `CC(OC(=O)CCCC(=O)O)c1cc2c(s1)C(=O)c1ccsc1C2=O` (stereo not shown) [VII-2, Mono-[1-(4,8-dioxo-4,8-dihydroxybenzo[1,2-b;4,5-b′]dithiophen-2-yl)-ethyl]pentanedioate]: the IC50 in data set [1] came out at 240 nM; with prostate cancer (PC-3) (72 h), 60 nM; in data set [2] (72 h) it was 80 nM; in data set [3] it was 480 nM; in data set [4] (setting [6]) it was 280 nM; in the data set on lung carcinoma (A-549) (Homo sapiens, A549, 72 h), 510 nM. Moreover, the “activity against the MDR cell line KB-VIN (in words)” value in data set [1] is reported as “potent activity”. Besides, the “activity against the androgen-insensitive prostate cancer cell line PC-3 (in words)” value with prostate cancer (PC-3) is on record as “potent activity”.

On to `CN(C)CCNC(=O)c1cc2c(s1)C(=O)c1ccsc1C2=O` [XV-2-H3PO4, 4,8-dioxo-4,8-dihydrobenzo[1,2-b;4,5-b′]dithiophene-2-carboxylate-(2-dimethyl-aminoethyl)-amide phosphoric acid salt], for which the IC50 turned out to be 10 nM in data set [1] (Homo sapiens, KBVIN, 72 h); 10 nM in the data set with prostate cancer (PC-3) (72 h, PC-3, 50% reduction in cell number after 72 hr of incubation); 60 nM in data set [2] (72 h, KB, 50% reduction in cell number after 72 hr of incubation); 10 nM in data set [3] (setting [5]); 50 nM in data set [4] (setting [6]); 10 nM in the data set with lung carcinoma (A-549) (Homo sapiens, A549, 72 h, A549, 50% reduction in cell number after 72 hr of incubation). The same compound showed a solubility in the data set “Water solubility” of at least 4000 µg/mL. Moreover, the “cytotoxicity against HL-60 (in words)” value in data set [4] (HL-60, summary of Table 2) is “the most potent one”.

Consider `C[C@H](NC(=O)c1cc2c(s1)C(=O)c1ccsc1C2=O)C(=O)O` [XVI, (L)-2-{(4,8-Dioxo-4,8-dihydrobenzo-[1,2-b;4,5-b′]dithiophene-2-carbonyl)-amino}-propionic acid], for which, in data set [4] (setting [6]), the IC50 came to 750 nM.
